What was measured:
C-Raf kinase = molecular target: T1, C-Raf kinase (Homo sapiens, UniProt P04049, Y340D/Y341D); assay: Biochemical assay for C-Raf.2 (coupled pyruvate kinase/lactate dehydrogenase); conditions: read-out: CRAF.2 IC50
T1 construct: Y340D,; GST (N); purchased Sigma
Protocol: Biochemical Assay for C-Raf.2
Activity of C-Raf kinase (SEQ. ID NO: 3) was determined spectroscopically using a coupled pyruvate kinase/lactate dehydrogenase assay that continuously monitors the ATP hydrolysis-dependent oxidation of NADH (e.g., Schindler et al., Science, 2000, 289, 1938-1942). Assays were conducted in 384-well plates (25 μL final volume) using 3.84 nM C-Raf (Eurofins), 1.5 units pyruvate kinase, 2.1 units lactate dehydrogenase, 1 mM phosphoenol pyruvate, 0.7 mM NADH, 50 nM MEK (SignalChem), and 1 mM ATP in assay buffer (100 mM Tris, pH 7.5, 15 mM MgCl2, 0.5 mM DTT, 0.1% octyl-glucoside, 0.002% (w/v) BSA, and 0.002% Triton X-100). Inhibition of C-Raf was measured by adding serial diluted test compound (final assay concentration of 1% DMSO). A decrease in absorption at 340 nm was monitored hourly for 4 h at 30° C. on a multi-mode microplate reader (BioTek). The reaction rate was calculated using the 2 to 3 h time frame. The reaction rate at each concentration of compound was converted to percent inhibition using controls (i.e., reaction with no test compound and reaction with a known inhibitor) and IC50 values were calculated by fitting a four-parameter sigmoidal curve to the data using Prism (GraphPad software).

H2405 cells = assay: H2405 cell proliferation assay (2), resazurin, 384-well; format: cell-based; conditions: Homo sapiens, NCI-H2405, inhibition of cell proliferation, 67-72 h
Protocol: H2405 Cell Proliferation Assay (2)
H2405 cells (catalog #CRL-5994) are obtained from the American Type Culture Collect (ATTC, Manassas, VA). Briefly, cells were grown in RPMI 1640 supplemented with 5% characterized fetal bovine serum (Invitrogen, Carlsbad, CA) and 1% Penicillin/Streptomycin/L-Glutamine at 37° C., 5% CO2, and 95% humidity. Cells are expanded until reaching 70-95% confluency at which point they are sub-cultured or harvested for assay use. A serial dilution of test compound is dispensed into a 384-well black clear bottom plate in triplicate. Seven hundred fifty cells are added per well in 50 μL complete growth medium in the 384-well plate. Plates are incubated for 67-72 h at 37° C., 5% CO2, and 95% humidity. At the end of the incubation, 10 μL of a 440 μM solution of resazurin (Sigma, St. Louis, MO) in PBS is added to each well of the plate and plates are incubated for an additional 5-6 h at 37° C., 5% CO2, and 95% humidity. Plates are read on a Synergy2 or equivalent reader (Biotek, Winooski VT) using an excitation of 540 nm and an emission of 600 nm. Data is analyzed using Prism software (GraphPad, San Diego, CA) to calculate IC50 values

Miapaca-2 cells = assay: MiaPaca-2 cell proliferation assay (1), resazurin, 96-well; format: cell-based; conditions: Homo sapiens, MIA PaCa-2, inhibition of cell proliferation
Outline: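 Three thousand cells per well in DMEM with 10% FBS and 2.5% horse serum exposed to serially diluted compound in triplicate for 67-72 h at 37 °C, 5% CO2. Viability by resazurin (additional 5-6 h), fluorescence ex 540/em 600 nm; IC50 calculated.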

WM3629 cells = assay: WM3629 cell proliferation assay (1), resazurin, 96-well; format: cell-based; conditions: inhibition of cell proliferation
Protocol: WM3629 Cell Proliferation Assay (1)
WM3629 cells (#WM3629-01-0001) are obtained from Rockland Immunochemicals Inc (Gilbertsville, PA). Briefly, cells were grown in MCDB 153 medium (Sigma, #M7403, St. Louis, MO) supplemented with 20% Leibovitz's L-15 (ThermoFisher #11415-064, Waltham, MA), 2% heat inactivated fetal bovine serum (ThermoFisher, #A3840001, Waltham, MA), 5 μg/mL Insulin (Bovine Pancreas) (Sigma, #I0516, St. Louis, MO), 1.68 mM Calcium Chloride (Sigma, #C-34006, St. Louis, MO) and 1% Penicillin/Streptomycin/L-Glutamine (ThermoFisher #10378016, Waltham, MA) at 37° C., 5% CO2, and 95% humidity. Cells are expanded until reaching 70-95% confluency at which point they are subcultured or harvested for assay use. A serial dilution of test compound is dispensed into a 96-well black clear bottom plate in triplicate. Four thousand five hundred cells are added per well in 200 μL complete growth medium in the 96-well plate. Plates are incubated for 67-72 hours at 37° C., 5% CO2, and 95% humidity. At the end of the incubation, 40 μL of a 440 μM solution of resazurin (Sigma, #199303, St. Louis, MO) in PBS is added to each well of the plate and plates are incubated for an additional 6-7 hours at 37° C., 5% CO2, and 95% humidity. Plates are read on a Synergy2 or equivalent reader (Biotek, Winooski VT) using an excitation of 540 nm and an emission of 600 nm. Data is analyzed using Prism software (GraphPad, San Diego, CA) to calculate IC50 values.

T1 sequence (P04049 307-648 Y340D/Y341D): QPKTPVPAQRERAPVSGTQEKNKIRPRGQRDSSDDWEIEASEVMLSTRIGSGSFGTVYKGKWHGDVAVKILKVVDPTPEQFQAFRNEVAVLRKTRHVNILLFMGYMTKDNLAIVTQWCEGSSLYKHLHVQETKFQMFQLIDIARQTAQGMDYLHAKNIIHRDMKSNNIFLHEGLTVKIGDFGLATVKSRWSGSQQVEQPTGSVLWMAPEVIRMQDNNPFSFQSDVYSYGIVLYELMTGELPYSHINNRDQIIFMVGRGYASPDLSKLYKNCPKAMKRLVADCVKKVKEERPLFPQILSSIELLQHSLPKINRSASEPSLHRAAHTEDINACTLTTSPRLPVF

| Compound | IC50 (C-Raf kinase) | IC50 (H2405 cells) | IC50 (Miapaca-2 cells) | IC50 (WM3629 cells) |
| --- | --- | --- | --- | --- |
| COC(C)(C)CCNC(=O)Nc1cc(-c2cc(OCCO)nc(-c3ccnc4[nH]ccc34)c2)c(C)cc1F [Example 90] | – | – | 1 to 10 µM | – |
| COC(C)(C)CCNC(=O)Nc1cc(-c2cc(OCCO)nc(-c3ccnc4[nH]ncc34)c2)c(C)cc1F [Example 91] | – | – | 1 to 10 µM | – |
| CNC(=O)c1cc(-c2cncc(-c3cc(NC(=O)N4CC[C@H](C(F)(F)F)C4)ccc3C)c2)ccn1 [Example 228] | 0.1 to 0.5 µM | 0.1 to 0.5 µM | – | – |
| COC(=O)Nc1cc(-c2cncc(-c3cc(NC(=O)N4CC[C@H](C(F)(F)F)C4)ccc3C)c2)ncn1 [Example 224] | ≤ 0.1 µM | ≤ 0.1 µM | – | ≤ 0.1 µM |
| Cc1cc(F)c(NC(=O)N2CCC(C)(C#N)CC2)cc1-c1cc(OCCO)nc(-c2ccnc3[nH]ncc23)c1 [Example 92] | – | – | 1 to 10 µM | – |
| CNC(=O)c1cc(-c2cncc(-c3cc(NC(=O)N4CC[C@H](C(F)(F)F)C4)ccc3C)c2)ncn1 [Example 220] | 0.1 to 0.5 µM | – | 1 to 10 µM | – |
| COC(=O)Nc1cc(-c2cccc(-c3cc(NC(=O)NCCC(C)(C)OC)c(F)cc3C)c2)ccn1 [Example 85] | – | – | 0.5 to 1 µM | – |

Second part, led by results:

| IC50 (C-Raf kinase) | IC50 (H2405 cells) | IC50 (Miapaca-2 cells) | Compound | IC50 (WM3629 cells) |
| --- | --- | --- | --- | --- |
| ≤ 0.1 µM | 0.5 to 1 µM | – | CNC(=O)c1cc(-c2cncc(-c3cc(NC(=O)N4CC[C@H](C(C)C)C4)ccc3C)c2)ccn1 [Example 229] | – |
| – | – | 1 to 10 µM | Cc1cc(F)c(NC(=O)NCC[C@@H]2CCO2)cc1-c1cc(OCCO)nc(-c2ccnc3[nH]ncc23)c1 [Example 89] | – |
| ≤ 0.1 µM | 1 to 10 µM | – | Cc1ccc(NC(=O)N2CC[C@H](C)C2)cc1-c1cncc(-c2cc(NC(=O)C3CC3)ncn2)c1 [Example 227] | – |
| – | – | 1 to 10 µM | Cc1cc(F)c(NC(=O)N[C@@H]2CC[C@H](F)C2)cc1-c1cc(OCCO)nc(-c2ccnc3[nH]ncc23)c1 [Example 88] | – |
| – | – | 1 to 10 µM | Cc1cc(F)c(NC(=O)NCCC2(C)CC2)cc1-c1cc(OCCO)nc(-c2ccnc3[nH]ncc23)c1 [Example 87] | – |
| ≤ 0.1 µM | 0.1 to 0.5 µM | – | CNC(=O)c1cc(-c2cc(-c3cc(NC(=O)N4CC[C@H](C(F)(F)F)C4)ccc3C)ccn2)ccn1 [Example 215] | ≤ 0.1 µM |
| 0.1 to 0.5 µM | – | – | CNC(=O)c1cc(-c2cc(-c3cc(NC(=O)N4CC[C@H](C(C)C)C4)ccc3C)ccn2)ccn1 [Example 225] | ≤ 0.1 µM |
| 0.1 to 0.5 µM | – | – | CNC(=O)c1cc(-c2cncc(-c3cc(NC(=O)N4CC[C@H](C(C)C)C4)ccc3C)c2)ncn1 [Example 226] | – |

From US20230357179A1, “RAF KINASE INHIBITORS AND METHODS OF USE THEREOF” (Deciphera Pharmaceuticals, LLC, priority 2021, published 2023)
